Where a name gives a salt, the structure may show the parent alone. Read-outs that look alike come from different tables or passages of the source.
Tests used:
[1] = biological target: T1, SARS-CoV-2 PLpro (nsp3 1564–1878) (Severe acute respiratory syndrome coronavirus 2, UniProt P0DTD1); test: biochemical; parameters: FRET-quenched peptide (Pro3) cleavage by PLpro, 10 min pre-incubation, slope over 20 min, normalised to no-compound control; conditions: low concentration screen, read-out: % of control remaining
[2] = biological target: T1, SARS-CoV-2 PLpro (nsp3 1564–1878); test: biochemical; parameters: FRET-quenched peptide (Pro3) cleavage by PLpro, 10 min pre-incubation, slope over 20 min, normalised to no-compound control; conditions: high concentration screen, read-out: % of control remaining

Q: With `COc1ccc2c(c1OC)C(=O)O[C@@H]2[C@H]1c2c(cc3c(c2OC)OCO3)CCN1C` (racemic) as the molecule, how does the remaining activity at 1.25 µM ([1]; Well no.=3446) read?
A: 92.3%

Q: And the remaining activity at 3.75 µM ([2]; Well no.=3446)?
A: 90.7%

Q: `CCCN1CCO[C@@H]2c3cc(O)ccc3OC[C@H]21` (racemic) was tested. Which remaining activity at 1.25 µM ([1]; Well no.=1505) did it give?
A: 96%

Q: What about the remaining activity at 3.75 µM ([2]; Well no.=1505) of the same molecule?
A: 96.1%

Q: Which results are given for `CC(C)NCC(O)COc1ccc(COCCOC(C)C)cc1` (racemic)?
A: remaining activity at 1.25 µM ([1]; Well no.=6415): 99.2%; remaining activity at 3.75 µM ([2]; Well no.=6415): 93.2%

Q: For `CCCCCC(O)/C=C/C=C\CCCCCCCC(=O)O` (racemic), which remaining activity at 1.25 µM ([1]; Well no.=4382) is on record?
A: 99.2%

Q: And the remaining activity at 3.75 µM ([2]; Well no.=4382)?
A: 96.6%

Q: Which results are given for `C[C@H]1CC[C@@H]2[C@@H](C)[C@H]3[C@H](C[C@H]4[C@@H]5CC=C6C[C@@H](O[C@@H]7O[C@H](CO)[C@H](O)[C@H](O[C@@H]8O[C@H](CO)[C@@H](O)[C@H](O)[C@H]8O)[C@H]7O[C@H]7O[C@@H](C)[C@H](O)[C@@H](O)[C@H]7O)CC[C@]6(C)[C@H]5CC[C@]34C)N2C1` (racemic)?
A: remaining activity at 1.25 µM ([1]; Well no.=3465): 105%; remaining activity at 3.75 µM ([2]; Well no.=3465): 105%

Q: How did the remaining activity at 1.25 µM ([1]; Well no.=1461) turn out when `CCCN1CCC[C@@H]2Cc3n[nH]cc3C[C@H]21` (racemic) was run?
A: 91%

Q: What about the remaining activity at 3.75 µM ([2]; Well no.=1461) of the same molecule?
A: 88.7%

Q: With `O=C1c2c(O)cc(O)cc2O[C@H](c2ccc(O)c(O)c2)[C@H]1O` (racemic) as the molecule, how does the remaining activity at 1.25 µM ([1]; Well no.=1527) read?
A: 95.9%

Q: What about the remaining activity at 3.75 µM ([2]; Well no.=1527) of the same molecule?
A: 96.7%

Q: For `c1cncc([C@@H]2CCCCN2)c1` (racemic), which remaining activity at 1.25 µM ([1]; Well no.=3477) is on record?
A: 102%

Q: And the remaining activity at 3.75 µM ([2]; Well no.=3477)?
A: 99.3%

Q: `C[N+](C)(C)CC(O)CC(=O)[O-]` (racemic) was tested. Which remaining activity at 1.25 µM ([1]; Well no.=3402) did it give?
A: 88.4%

Q: And the remaining activity at 3.75 µM ([2]; Well no.=3402)?
A: 86.6%

Q: With `CC1=CC(=O)CC(C)(C)C1(O)/C=C/C(C)=C\C(=O)O` (racemic) as the molecule, how does the remaining activity at 1.25 µM ([1]; Well no.=3152) read?
A: 101%

Q: And the remaining activity at 3.75 µM ([2]; Well no.=3152)?
A: 102%

Q: With `CNCC(O)c1ccc(O)cc1` (racemic) as the molecule, how does the remaining activity at 1.25 µM ([1]; Well no.=1356) read?
A: 102%

Q: And the remaining activity at 3.75 µM ([2]; Well no.=1356)?
A: 104%

Q: Which remaining activity at 1.25 µM ([1]; Well no.=1528) does the source give for `C=CC(N)CCC(=O)O` (racemic) here?
A: 98.8%

Q: And the remaining activity at 3.75 µM ([2]; Well no.=1528)?
A: 96.6%

Q: For `CCCN(CCc1ccccc1)C1CCc2c(O)cccc2C1` (racemic), which remaining activity at 1.25 µM ([1]; Well no.=1357) is on record?
A: 102%

Q: What about the remaining activity at 3.75 µM ([2]; Well no.=1357) of the same molecule?
A: 103%

Q: With `CCCCCC(O)/C=C/C=O` (racemic) as the molecule, how does the remaining activity at 1.25 µM ([1]; Well no.=4337) read?
A: 104%

Q: What about the remaining activity at 3.75 µM ([2]; Well no.=4337) of the same molecule?
A: 102%

Q: `CCCCC/C=C\C/C=C\C/C=C\C=C\C1CCCC(=O)O1` (racemic) was tested. Which remaining activity at 1.25 µM ([1]; Well no.=4277) did it give?
A: 105%

Q: What about the remaining activity at 3.75 µM ([2]; Well no.=4277) of the same molecule?
A: 102%

Q: `OC1CCCCC1N1CCC(c2ccccc2)CC1` (racemic) was tested. Which remaining activity at 1.25 µM ([1]; Well no.=1290) did it give?
A: 101%

Q: And the remaining activity at 3.75 µM ([2]; Well no.=1290)?
A: 97.9%

Q: `CCCCCCCCCCCCCC(=O)O[C@@H]1[C@@H](C)[C@@]2(O)[C@@H](C=C(CO)C[C@@]3(O)C(=O)C(C)=C[C@@H]23)[C@@H]2C(C)(C)[C@]12OC(C)=O` (racemic) was tested. Which remaining activity at 1.25 µM ([1]; Well no.=3080) did it give?
A: 98.8%

Q: What about the remaining activity at 3.75 µM ([2]; Well no.=3080) of the same molecule?
A: 98.9%

Q: What does the source list for `CCCCCCCN[C@H]1CCC[C@@H]1CCCCCCC(=O)O` (racemic)?
A: remaining activity at 1.25 µM ([1]; Well no.=4531): 95.3%; remaining activity at 3.75 µM ([2]; Well no.=4531): 98%

Q: With `COC1=CC(=O)O[C@@H](/C=C/c2ccccc2)C1` (racemic) as the molecule, how does the remaining activity at 1.25 µM ([1]; Well no.=3371) read?
A: 92.9%

Q: And the remaining activity at 3.75 µM ([2]; Well no.=3371)?
A: 95.8%

Q: Which remaining activity at 1.25 µM ([1]; Well no.=4479) does the source give for `CCCCC[C@H](O)/C=C/[C@@H]1[C@@H](C/C=C\CCCC(=O)O)[C@H](O)C[C@H]1O` (racemic) here?
A: 101%

Q: What about the remaining activity at 3.75 µM ([2]; Well no.=4479) of the same molecule?
A: 101%

Q: What does the source list for `CCCCC/C=C\C=C\C(O)CCCCCCCC(=O)O` (racemic)?
A: remaining activity at 1.25 µM ([1]; Well no.=4378): 103%; remaining activity at 3.75 µM ([2]; Well no.=4378): 103%

Q: How did the remaining activity at 1.25 µM ([1]; Well no.=2588) turn out when `O=C(NC(NC(=S)Nc1ccc(F)c([N+](=O)[O-])c1)C(Cl)(Cl)Cl)C(c1ccccc1)c1ccccc1` (racemic) was run?
A: 94.8%

Q: What about the remaining activity at 3.75 µM ([2]; Well no.=2588) of the same molecule?
A: 93.4%

Q: `COc1ccc(CCN(C)CCCC(C#N)(c2ccc(OC)c(OC)c2)C(C)C)cc1OC` (racemic) was tested. Which remaining activity at 1.25 µM ([1]; Well no.=1336) did it give?
A: 104%

Q: What about the remaining activity at 3.75 µM ([2]; Well no.=1336) of the same molecule?
A: 101%

Q: How did the remaining activity at 1.25 µM ([1]; Well no.=752) turn out when `NC(Cc1cc(O)c(O)cc1O)C(=O)O` (racemic) [6-Hydroxy-DL-DOPA] was run?
A: 88.3%

Q: And the remaining activity at 3.75 µM ([2]; Well no.=752)?
A: 89.4%

Q: Which results are given for `NCC(O)c1ccc(O)cc1` (racemic) [(+,-)-Octopamine HCl]?
A: remaining activity at 1.25 µM ([1]; Well no.=5038): 101%; remaining activity at 3.75 µM ([2]; Well no.=5038): 103%

Q: For `CCCC(=O)OC(CNC(C)(C)C)COc1nsnc1N1CCOCC1` (racemic) [(RS)-Butyryltimolol], which remaining activity at 1.25 µM ([1]; Well no.=7133) is on record?
A: 102%

Q: And the remaining activity at 3.75 µM ([2]; Well no.=7133)?
A: 96.2%

Q: What does the source list for `CC(N)(C(=O)O)c1ccc(C(=O)O)cc1` (racemic) [(RS)-MCPG]?
A: remaining activity at 1.25 µM ([1]; Well no.=8575): 109%; remaining activity at 3.75 µM ([2]; Well no.=8575): 102%

Q: `CN1C[C@@H]2c3ccccc3Oc3ccc(Cl)cc3[C@H]2C1` (racemic) [Asenapine (hydrochloride)] was tested. Which remaining activity at 1.25 µM ([1]; Well no.=7661) did it give?
A: 101%

Q: And the remaining activity at 3.75 µM ([2]; Well no.=7661)?
A: 97%

Q: For `CN1C[C@@H]2c3ccccc3Oc3ccc(Cl)cc3[C@H]2C1` (racemic) [Asenapine (maleate)], which remaining activity at 1.25 µM ([1]; Well no.=6513) is on record?
A: 102%

Q: What about the remaining activity at 3.75 µM ([2]; Well no.=6513) of the same molecule?
A: 103%

Q: What does the source list for `C[C@H](Cc1ccc(OCC(=O)O)cc1)NC[C@H](O)c1cccc(Cl)c1` (racemic) [BRL 37344 sodium]?
A: remaining activity at 1.25 µM ([1]; Well no.=183): 98%; remaining activity at 3.75 µM ([2]; Well no.=183): 103%

Q: What does the source list for `COc1cc(N)c(Cl)cc1C(=O)N[C@@H]1CCN(CCCOc2ccc(F)cc2)C[C@@H]1OC` (racemic) [Cisapride]?
A: remaining activity at 1.25 µM ([1]; Well no.=6909): 91.7%; remaining activity at 3.75 µM ([2]; Well no.=6909): 90.7%

Q: Which remaining activity at 1.25 µM ([1]; Well no.=7171) does the source give for `O=C(O)C(O)Cc1ccccc1` (racemic) [DL-3-Phenyllactic acid] here?
A: 102%

Q: And the remaining activity at 3.75 µM ([2]; Well no.=7171)?
A: 99.8%

Q: What does the source list for `CNCC(O)c1ccc(O)c(O)c1` (racemic) [DL-Adrenaline]?
A: remaining activity at 1.25 µM ([1]; Well no.=5278): 96.6%; remaining activity at 3.75 µM ([2]; Well no.=5278): 94.3%

Q: How did the remaining activity at 1.25 µM ([1]; Well no.=363) turn out when `CCCCS(=N)(=O)CCC(N)C(=O)O` (racemic) [DL-Buthionine-[S,R]-sulfoximine] was run?
A: 96.1%

Q: And the remaining activity at 3.75 µM ([2]; Well no.=363)?
A: 93.8%

Q: Which remaining activity at 1.25 µM ([1]; Well no.=136) does the source give for `NC1CONC1=O` (racemic) [DL-Cycloserine] here?
A: 109%

Q: And the remaining activity at 3.75 µM ([2]; Well no.=136)?
A: 108%

Q: How did the remaining activity at 1.25 µM ([1]; Well no.=6391) turn out when `NC(Cc1ccc(O)c(O)c1)C(=O)O` (racemic) [DL-Dopa] was run?
A: 106%

Q: And the remaining activity at 3.75 µM ([2]; Well no.=6391)?
A: 107%

Q: With `CCCC(N)C(=O)O` (racemic) [DL-Norvaline] as the molecule, how does the remaining activity at 1.25 µM ([1]; Well no.=7399) read?
A: 108%

Q: And the remaining activity at 3.75 µM ([2]; Well no.=7399)?
A: 108%

Q: And the remaining activity at 3.75 µM ([2]; Well no.=8563)?
A: 109%

Q: `CCCCCCCCCCCCCCCC(=O)N[C@H](CN1CCOCC1)[C@H](O)c1ccccc1` (racemic) [DL-PPMP] was tested. Which remaining activity at 1.25 µM ([1]; Well no.=4591) did it give?
A: 93.5%

Q: And the remaining activity at 3.75 µM ([2]; Well no.=4591)?
A: 100%

Source: publication PMC8286840, “Identifying SARS-CoV-2 antiviral compounds by screening for small molecule inhibitors of Nsp3 papain-like protease” (Biochemical Journal, 2021)
